Laboratory results: patent US9868746B2, “Substituted 5-aminothieno[2,3-C]pyridazine-6-carboxamide analogs as positive allosteric modulators of the muscarinic acetylcholine receptor M4” (Vanderbilt University, priority 2012, dated 2018)
Like-named read-outs stand apart in the source and are kept apart here.

Tests used:
[1] = tested on: Alzheimer's disease patients; conditions: cited from earlier work
animal models = conditions: cited from earlier work
[2] = hepatotoxicity of AChE inhibitors such as tacrine; cited from earlier work
mAChR M4 = target: T1, mAChR M4 (Homo sapiens, UniProt P08173); assay: mAChR M4 cell-based functional assay (calcium mobilization, potentiation of EC20 acetylcholine response)
T1 construct: expressed in transfected cells; host or cells: CHO-K1 cells stably transfected with M4 cDNA and chimeric G-protein Gqi5
T1 sequence (P08173 1-479): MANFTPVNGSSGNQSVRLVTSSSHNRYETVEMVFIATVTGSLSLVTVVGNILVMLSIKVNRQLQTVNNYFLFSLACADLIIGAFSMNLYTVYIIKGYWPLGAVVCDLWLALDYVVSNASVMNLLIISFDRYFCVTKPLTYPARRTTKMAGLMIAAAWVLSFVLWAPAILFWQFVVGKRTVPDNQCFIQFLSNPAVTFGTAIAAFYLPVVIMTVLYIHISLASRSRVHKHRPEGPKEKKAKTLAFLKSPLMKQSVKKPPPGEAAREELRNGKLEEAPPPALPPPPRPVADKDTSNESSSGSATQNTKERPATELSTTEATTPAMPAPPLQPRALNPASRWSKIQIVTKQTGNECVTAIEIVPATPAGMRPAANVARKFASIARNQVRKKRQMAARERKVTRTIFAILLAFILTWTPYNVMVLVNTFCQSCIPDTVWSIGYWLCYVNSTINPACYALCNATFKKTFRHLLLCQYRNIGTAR

[3] = mAChR M4 cell-based functional assay, >10,000 estimated for low potency compounds without plateau, read-out: EC50

Structure (SMILES) | Emax at 30 µM (mAChR M4; % ACh maximum at 30 μM) | EC50 (mAChR M4; [3]) | also measured
CCCCCCOc1nsnc1C1=CCCN(C)C1 [xanomeline] |  |  | psychotic behavioral symptoms such as delusions, suspiciousness, vocal outbursts, and hallucinations ([1]; Bodick 1997): reduce psychotic behavioral symptoms; treatment induced side effects [1]: gastrointestinal effects; catalepsy in animal models (animal models; in vivo): without causing catalepsy; activity in animal models with similar profiles to known antipsychotic drugs (animal models; muscarinic agonist, Bymaster 1998, 1999, Shannon 1999, 2000): active in animal models
Nc1c2c(nc3ccccc13)CCCC2 [tacrine] |  |  | elevated liver transaminases observed in patients [2]: about 30 % of patients
Cc1nnc2sc(C(=O)NCc3ccc(-n4cncn4)cc3)c(N)c2c1C [Example B511] | 67% | 78 nM | 
COc1ccc(OC(=O)N2CC(NC(=O)c3sc4nnc(C)c(C)c4c3N)C2)cc1 [Example B334] | 69% | 13 nM | 
Cc1nnc2sc(C(=O)NC3CCN(C(=O)OC(C)C)C3)c(N)c2c1C (stereo not shown) [Example B222] | 50% | > 10000 nM | 
Cc1nnc2sc(C(=O)NC3CCN(C(=O)c4ccc(F)c(F)c4)C3)c(N)c2c1C (stereo not shown) [Example B255] | 71% | 430 nM | 
Cc1nnc2sc(C(=O)N[C@@H]3CCN(c4ccccc4)C3)c(N)c2c1C [Example B192] | 51% | 1800 nM | 
Cc1nnc2sc(C(=O)NCc3ccc(F)cc3)c(N)c2c1C [Example B435] | 68% | 180 nM | 
Nc1c(C(=O)NCc2ccc3c(c2)OC(F)(F)O3)sc2nnc3c(c12)CCCC3 [Example B53] | 42% | 170 nM | 
Cc1nnc2sc(C(=O)N3CCC(NC(=O)Oc4ccccc4)C3)c(N)c2c1C (stereo not shown) [Example B205] | 71% | 570 nM | 
Cc1nnc2sc(C(=O)NCCNS(=O)(=O)c3ccc(F)cc3)c(N)c2c1C [Example B353] | 57% | 3400 nM | 
Cc1nnc2sc(C(=O)NC3CN(C(=O)c4cccs4)C3)c(N)c2c1C [Example B128] | 78% | 31 nM | 
Nc1c(C(=O)NCc2ccc3c(c2)OCO3)sc2nnccc12 [Example B22] | 63% | 2800 nM | 
Cc1nnc2sc(C(=O)N3CC(F)(c4ccc([S+](C)[O-])cc4)C3)c(N)c2c1C (stereo not shown) [Example B384] | 71% | 1100 nM | 
Cc1nnc2sc(C(=O)NCCN(C)C(=O)c3ccccc3)c(N)c2c1C [Example B369] | 25% | > 10000 nM | 
Cc1nnc2sc(C(=O)NCc3ccc(-c4ccnc(F)c4)cc3)c(N)c2c1C [Example B461] | 84% | 23 nM | 
COc1ccc(CNC(=O)c2sc3nnc(C)c(C)c3c2N)cc1 [Example B16] | 99% | 250 nM | 
CS(=O)(=O)c1ccc(CNC(=O)c2sc3nnc4c(c3c2N)CCCC4)cc1 [Example B58] | 64% | 240 nM | 
Cc1ccc(S(=O)(=O)N2CC(NC(=O)c3sc4nnc(C)c(C)c4c3N)C2)cc1F [Example B145] | 82% | 130 nM | 
Cc1nnc2sc(C(=O)NC3CN(C(=O)Nc4ccc(OC(F)F)cc4)C3)c(N)c2c1C [Example B363] | 74% | 27 nM | 
Cc1nnc2sc(C(=O)NC3CN(C(=O)c4ccccn4)C3)c(N)c2c1C [Example B126] | 92% | 290 nM | 
Cc1nnc2sc(C(=O)NCc3ccc(-c4cccc5cccnc45)cc3)c(N)c2c1C [Example B453] | 74% | 240 nM | 
Cc1nnc2sc(C(=O)NC3CCN(c4ccc(C(F)(F)F)cc4)C3)c(N)c2c1C (stereo not shown) [Example B283] | 76% | 180 nM | 
Cc1nnc2sc(C(=O)NCc3ccc(S(=O)(=O)C(F)F)cc3)c(N)c2c1C [Example B117] | 66% |  | EC50 (mAChR M4; EC50 (nM)): 18 nM
Cc1nnc2sc(C(=O)NCc3ccc([S+]([O-])C(F)F)cc3)c(N)c2c1C (single isomer, unassigned) [Example B510] |  | 500 nM | Emax (%)* (mAChR M4; % ACh maximum at 30 μM): 70%
Cc1nnc2sc(C(=O)N3CC(F)(c4ccccn4)C3)c(N)c2c1C [Example B303] | 57% | 500 nM | 
Cc1nnc2sc(C(=O)NCc3ccc(-n4ccnc4)cc3)c(N)c2c1C [Example B490] | 61% | 20 nM | 
Cc1nnc2sc(C(=O)NCc3ccc(CN4CCOCC4)cc3)c(N)c2c1C [Example B441] | 79% | 80 nM | 
Cc1nnc2sc(C(=O)NCC3CC3)c(N)c2c1C [Example B6] | 89% | 500 nM | 
Cc1nc(C)c(S(=O)(=O)N2CC(NC(=O)c3sc4nnc(C)c(C)c4c3N)C2)s1 [Example B103] | 69% | 94 nM | 
